Data as given in paper PMC7305236, “The atypical chemokine receptor ACKR3/CXCR7 is a broad-spectrum scavenger for opioid peptides” (Nature Communications, 2020).
Like-named read-outs stand apart in the source and are kept apart here.

How the values were obtained:
Format in all cases: cell-based
CXCR3A = target: T1, CXCR3A (Homo sapiens, UniProt P49682); test: Figure S1a: screen of opioid peptides on CXCR3A; details: replicate 1
T1 construct: expressed in transfected cells; host or cells: U87 cells
T1 sequence (P49682 1-368): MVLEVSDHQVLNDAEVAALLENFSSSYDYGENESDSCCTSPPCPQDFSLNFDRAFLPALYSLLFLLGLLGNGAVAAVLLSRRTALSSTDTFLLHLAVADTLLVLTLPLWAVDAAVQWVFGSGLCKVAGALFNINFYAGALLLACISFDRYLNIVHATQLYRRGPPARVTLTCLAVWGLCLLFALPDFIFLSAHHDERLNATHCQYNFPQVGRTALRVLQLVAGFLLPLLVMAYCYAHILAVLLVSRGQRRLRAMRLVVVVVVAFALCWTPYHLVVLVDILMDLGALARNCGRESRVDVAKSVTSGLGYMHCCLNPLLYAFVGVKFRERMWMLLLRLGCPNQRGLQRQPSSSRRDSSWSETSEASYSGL

CXCR4 = target: T2, CXCR4 (Homo sapiens, UniProt P61073)
T2 construct: expressed in transfected cells; host or cells: U87, transient cotransfection of pNBe vectors

CXCR7 = target: T3, CXCR7 (Homo sapiens, UniProt P25106); test: Figure S1a: screen of opioid peptides on CXCR7
T3 construct: expressed in transfected cells; host or cells: U87 cells

U87 = test: Figure S6 EC50 comparison, U87 cells + chemokine; details: U87 cells + the labelled chemokine, titrated agonist not given, read-out: Ec50 (inset, Ec50 comparison)
[1] = Figure 7g: values after +LIH383, +LIH inverse, +CXCL12, +CXCL10
U87.ACKR3 = test: Figure S6 EC50 comparison, U87.ACKR3 cells + chemokine; details: U87.ACKR3 cells + the labelled chemokine, titrated agonist not given, read-out: Ec50 (inset, Ec50 comparison)
KOR [2] = target: T4, KOR (Homo sapiens, UniProt P41145); test: Figure 6h, KOR, DMSO vs Bafilomycin treatment; parameters: expressed in transfected cells; host or cells: U87 (human glioblastoma); details: n = 3 or 4 as in cell
KOR [3] = target: T4, KOR; test: Figure 6h, KOR level after ligand with DMSO or Bafilomycin; parameters: expressed in transfected cells; host or cells: U87 (human glioblastoma)
[4] = Figure 7f: response to FBS, CXCL12, opioid peptides and LIH383 relative to Medium; details: Medium about 1

T2 sequence (P61073 whole entry): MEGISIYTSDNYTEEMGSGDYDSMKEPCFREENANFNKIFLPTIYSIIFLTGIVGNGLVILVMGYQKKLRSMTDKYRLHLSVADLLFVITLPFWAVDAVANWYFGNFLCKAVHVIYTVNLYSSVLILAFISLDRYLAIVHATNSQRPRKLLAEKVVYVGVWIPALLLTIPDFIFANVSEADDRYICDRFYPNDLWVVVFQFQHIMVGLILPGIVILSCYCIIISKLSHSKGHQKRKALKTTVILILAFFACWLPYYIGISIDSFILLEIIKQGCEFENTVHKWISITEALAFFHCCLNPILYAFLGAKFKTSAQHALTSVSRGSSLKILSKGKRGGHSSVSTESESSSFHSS
T4 sequence (P41145 whole entry): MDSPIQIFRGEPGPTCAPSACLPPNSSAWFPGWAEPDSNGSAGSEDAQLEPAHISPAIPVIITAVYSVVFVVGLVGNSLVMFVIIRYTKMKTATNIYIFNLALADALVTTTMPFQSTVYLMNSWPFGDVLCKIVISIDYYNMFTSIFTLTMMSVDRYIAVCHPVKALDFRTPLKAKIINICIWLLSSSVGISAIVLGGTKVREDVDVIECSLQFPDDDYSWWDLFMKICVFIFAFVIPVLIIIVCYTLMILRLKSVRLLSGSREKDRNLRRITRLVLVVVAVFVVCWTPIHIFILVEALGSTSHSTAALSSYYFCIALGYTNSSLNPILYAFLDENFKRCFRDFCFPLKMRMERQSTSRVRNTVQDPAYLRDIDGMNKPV
T3 sequence (P25106 whole entry): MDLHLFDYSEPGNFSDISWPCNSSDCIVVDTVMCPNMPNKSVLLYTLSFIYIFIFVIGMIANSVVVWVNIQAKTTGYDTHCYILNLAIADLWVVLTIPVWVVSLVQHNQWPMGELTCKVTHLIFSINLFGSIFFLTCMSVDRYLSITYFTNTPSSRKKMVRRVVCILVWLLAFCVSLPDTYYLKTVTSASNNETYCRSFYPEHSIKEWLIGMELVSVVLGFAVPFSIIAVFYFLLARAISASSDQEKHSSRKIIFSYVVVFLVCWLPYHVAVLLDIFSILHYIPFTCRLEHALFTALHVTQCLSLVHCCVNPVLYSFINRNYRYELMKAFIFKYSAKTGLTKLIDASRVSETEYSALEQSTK

Row | Substance | Figure S1a value, CXCR3A (CXCR3A) | Figure S1a value, CXCR4 (CXCR4; replicate 1) | Figure S1a value, CXCR4 (CXCR4; replicate 2) | EC50 (U87; replicate 1) [nM] | EC50 (U87; replicate 2) [nM] | EC50 (U87; replicate 3) [nM] | Figure 7g value ([1]; replicate 1) | Figure 7g value ([1]; replicate 2) | Figure 7g value ([1]; replicate 3) | Figure 7g value ([1]; replicate 4) | EC50 (U87.ACKR3; replicate 1) [nM] | EC50 (U87.ACKR3; replicate 2) [nM] | EC50 (U87.ACKR3; replicate 3) [nM] | also measured
1 | CXCL10 | 79.87 | 64.0305 | 102.577 | 6.8 | 9.32 | 14 | 43.9358 | 53.1833 | 71.6583 | 66.9981 | 17.2 | 18.1 | 19.3 | Figure S1a value, CXCR7 (CXCR7; replicate 1): 93.7533; Figure S1a value, CXCR7 (CXCR7; replicate 2): 74.5914; EC50 (U87.ACKR3; replicate 4): 29.1 nM
2 | CXCL12 | 103.792 | 122.173 | 86.6576 | 2.9 | 11 | 6.04 | 102.594 | 103.187 | 90.4001 | 88.8058 | 7.39 | 9.3 | 13.1 | Mean ± SEM (Figure 6h, KOR) (KOR [2]; 'DMSO vs Bafilomycin treatment'): 112,6 ± 3,88, n=4; Mean ± SEM (Figure 6h, KOR) (KOR [2]; first of two columns under 'DMSO vs Bafilomycin treatment' (presumably DMSO)): 107,9 ± 5,673, n=4; KOR level after ligand (Figure 6h) (KOR [3]; Bafilomycin, replicate 1): 115.399; KOR level after ligand (Figure 6h) (KOR [3]; Bafilomycin, replicate 2): 101.029; KOR level after ligand (Figure 6h) (KOR [3]; Bafilomycin, replicate 3): 116.035; KOR level after ligand (Figure 6h) (KOR [3]; Bafilomycin, replicate 4): 117.81; KOR level after ligand (Figure 6h) (KOR [3]; DMSO, replicate 1): 95.0504; KOR level after ligand (Figure 6h) (KOR [3]; DMSO, replicate 3): 120.17; KOR level after ligand (Figure 6h) (KOR [3]; DMSO, replicate 4): 114.207; Figure 7f value ([4]; replicate 1): 0.8915; Figure 7f value ([4]; replicate 2): 0.9254; Figure 7f value ([4]; replicate 4): 0.9153; EC50 (U87; replicate 4): 5.61 nM
